# In US20150141437A1, “AMIDOPHENOXYPROPANOLAMINES” (MEDIZINISCHE UNIVERSITÄT WIEN, priority 2012, published 2015):
# Tests used:
# [1] = tested on: P. falciparum K1 (CQ-resistant); test: [3H]-hypoxanthine incorporation assay, K1 strain; type: cell-based; conditions: Plasmodium falciparum, values marked with asterisk: [3H]-hypoxanthine assay, read-out: IC50 growth inhibition K1 (*)
# [2] = tested on: P. falciparum NF54 (CQ sensitive); test: [3H]-hypoxanthine incorporation assay, NF54 strain; type: cell-based; conditions: Plasmodium falciparum, values marked with asterisk: [3H]-hypoxanthine assay, read-out: IC50 growth inhibition NF54*
IC50 [1],IC50 [2],Structure (SMILES)
52 nM,148 nM,"O=C(NCCCc1ccccc1)c1ccccc1OCC(O)CNCC12CC3CC(CC(C3)C1)C2 (stereo not shown) [Compound I-32, 2-{3-[(Adamantan-1-ylmethyl)-amino]-2-hydroxy-propoxy}-N-(3-phenyl-propyl)-benzamide]"
1.8 nM,6.2 nM,"O=C(Nc1ccc2ccccc2c1)c1ccccc1OCC(O)CNCC12CC3CC(CC(C3)C1)C2 (stereo not shown) [Compound I-71, 2-{3-[(Adamantan-1-ylmethyl)-amino]-2-hydroxy-propoxy}-N-naphthalen-2-yl-benzamide]"
76 nM,333 nM,"CCCCN(CCCC)CC(O)COc1ccccc1C(=O)NCCC(C)C (stereo not shown) [Compound I-57, 2-(3-Dibutylamino-2-hydroxy-propoxy)-N-(3-methyl-butyl)-benzamide]"
28 nM,119 nM,"CN(CC(O)COc1ccccc1C(=O)NCc1ccc(C2(C(F)(F)F)N=N2)cc1)C1C2CC3CC(C2)CC1C3 (stereo not shown) [Compound I-43, 2-[3-(Adamantan-2-yl-methyl-amino)-2-hydroxy-propoxy]-N-[4-(3-trifluoromethyl-3H-diazirin-3-yl)-benzyl]-benzamide]"
488 nM,2550 nM,"C=CCNCC(O)COc1ccccc1C(=O)Nc1ccccc1CC=C (stereo not shown) [Compound I-65, 2-(3-Allylamino-2-hydroxy-propoxy)-N-(2-allyl-phenyl)-benzamide]"
83 nM,258 nM,"O=C(Nc1ccccc1F)c1ccccc1OCC(O)CN1CCN(C(c2ccccc2)c2ccccc2)CC1 (stereo not shown) [Compound I-79, 2-[3-(4-Benzhydryl-piperazin-1-yl)-2-hydroxy-propoxy]-N-(2-fluoro-phenyl)-benzamide]"
1.2 nM,5.7 nM,"O=C(Nc1cccc(C(F)(F)F)c1)c1cc(Cl)ccc1OCC(O)CN1CCN(C(c2ccccc2)c2ccccc2)CC1 (stereo not shown) [Compound I-85, 2-[3-(4-Benzhydryl-piperazin-1-yl)-2-hydroxy-propoxy]-5-chloro-N-(3-trifluoromethyl-phenyl)-benzamide]"
1.2 nM,4.8 nM,"O=C(Nc1ccc(Br)cc1)c1ccccc1OCC(O)CNCC12CC3CC(CC(C3)C1)C2 (stereo not shown) [Compound I-74, 2-{3-[(Adamantan-1-ylmethyl)-amino]-2-hydroxy-propoxy}-N-(4-bromo-phenyl)-benzamide]"
8 nM,24 nM,"O=C(Nc1ccccc1F)c1ccccc1OCC(O)CNCC12CC3CC(CC(C3)C1)C2 (stereo not shown) [Compound I-38, 2-{3-[(Adamantan-1-ylmethyl)-amino]-2-hydroxy-propoxy}-N-(2-fluoro-phenyl)-benzamide]"
1.3 nM,5.5 nM,"O=C(Nc1cccc(C(F)(F)F)c1)c1ccccc1OCC(O)CN1CCN(C(c2ccccc2)c2ccccc2)CC1 (stereo not shown) [Compound I-69, 2-[3-(4-Benzhydryl-piperazin-1-yl)-2-hydroxy-propoxy]-N-(3-trifluoromethyl-phenyl)-benzamide]"
827 nM,2750 nM,"CCCCNCC(O)COc1ccccc1C(=O)NCCC(C)C (stereo not shown) [Compound I-56, 2-(3-Butylamino-2-hydroxy-propoxy)-N-(3-methyl-butyl)-benzamide]"
9 nM,26 nM,"O=C(Nc1ccc(F)cc1)c1ccccc1OCC(O)CN1CCC(c2ccccc2)CC1 (stereo not shown) [Compound I-46, N-(4-Fluoro-phenyl)-2-[2-hydroxy-3-(4-phenyl-piperidin-1-yl)-propoxy]-benzamide]"
4 nM,14 nM,"O=C(Nc1ccc(F)cc1)c1ccccc1OCC(O)CN1CCN(C(c2ccccc2)c2ccccc2)CC1 (stereo not shown) [Compound I-48, 2-[3-(4-Benzhydryl-piperazin-1-yl)-2-hydroxy-propoxy]-N-(4-fluoro-phenyl)-benzamide]"
6 nM,18 nM,"CCCCN(CCCC)CC(O)COc1ccccc1C(=O)Nc1ccc(F)cc1 (stereo not shown) [Compound I-61, 2-(3-Dibutylamino-2-hydroxy-propoxy)-N-(4-fluoro-phenyl)-benzamide]"
7.1 nM,28 nM,"O=C(Nc1ccc(Br)cc1)c1ccccc1OCC(O)CNC12CC3CC(CC(C3)C1)C2 (stereo not shown) [Compound I-75, 2-[3-(Adamantan-1-ylamino)-2-hydroxy-propoxy]-N-(4-bromo-phenyl)-benzamide]"
3.5 nM,16 nM,"O=C(Nc1cccc(C(F)(F)F)c1)c1cc(Cl)ccc1OCC(O)CN1CCC(c2ccccc2)CC1 (stereo not shown) [Compound I-83, 5-Chloro-2-[2-hydroxy-3-(4-phenyl-piperidin-1-yl)-propoxy]-N-(3-trifluoromethyl-phenyl)-benzamide]"
1 nM,4.2 nM,"O=C(Nc1cccc(C(F)(F)F)c1)c1cc(Cl)ccc1OCC(O)CNCC12CC3CC(CC(C3)C1)C2 (stereo not shown) [Compound I-72, 2-{3-[(Adamantan-1-ylmethyl)-amino]-2-hydroxy-propoxy}-5-chloro-N-(3-trifluoromethyl-phenyl)-benzamide]"
8 nM,27 nM,"O=C(NCCc1ccccc1)c1cc(Cl)ccc1OCC(O)CNCC12CC3CC(CC(C3)C1)C2 (stereo not shown) [Compound I-33, 2-{3-[(Adamantan-1-ylmethyl)-amino]-2-hydroxy-propoxy}-5-chloro-N-phenethyl-benzamide]"

IC50 [1],IC50 [2],Structure (SMILES)
16 nM,63 nM,"CN(CC(O)COc1ccccc1C(=O)Nc1ccc(F)cc1)CC12CC3CC(CC(C3)C1)C2 (stereo not shown) [Compound I-37, 2-[3-(Adamantan-1-ylmethyl-methyl-amino)-2-hydroxy-propoxy]-N-(4-fluoro-phenyl)-benzamide]"
74 nM,205 nM,"O=C(Nc1ccccc1F)c1ccccc1OCC(O)CN1CCC(Cc2ccccc2)CC1 (stereo not shown) [Compound I-78, 2-[3-(4-Benzyl-piperidin-1-yl)-2-hydroxy-propoxy]-N-(2-fluoro-phenyl)-benzamide]"
1 nM,3.8 nM,"O=C(Nc1cccc(C(F)(F)F)c1)c1cc(Cl)ccc1OCC(O)CN1CCC(Cc2ccccc2)CC1 (stereo not shown) [Compound I-84, 2-[3-(4-Benzyl-piperidin-1-yl)-2-hydroxy-propoxy]-5-chloro-N-(3-trifluoromethyl-phenyl)-benzamide]"
371 nM,1360 nM,"CC(C)CCNC(=O)c1ccccc1OCC(O)CNCc1ccc(C(F)(F)F)cc1 (stereo not shown) [Compound I-60, 2-[2-Hydroxy-3-(4-trifluoromethyl-benzylamino)-propoxy]-N-(3-methyl-butyl)-benzamide]"
11 nM,47 nM,"Cc1ccc(NC(=O)c2ccccc2OCC(O)CN2CCC(c3ccccc3)CC2)cc1 (stereo not shown) [Compound I-80, 2-[2-Hydroxy-3-(4-phenyl-piperidin-1-yl)-propoxy]-N-p-tolyl-benzamide]"
21 nM,73 nM,"C=CCc1ccccc1NC(=O)c1ccccc1OCC(O)CNCC12CC3CC(CC(C3)C1)C2 (stereo not shown) [Compound I-73, 2-{3-[(Adamantan-1-ylmethyl)-amino]-2-hydroxy-propoxy}-N-(2-allyl-phenyl)-benzamide]"
18 nM,57 nM,"O=C(NCc1ccc(C(F)(F)F)cc1)c1ccccc1OCC(O)CNCC12CC3CC(CC(C3)C1)C2 (stereo not shown) [Compound I-30, 2-{3-[(Adamantan-1-ylmethyl)-amino]-2-hydroxy-propoxy}-N-(4-trifluoromethyl-benzyl)-benzamide]"
0.6 nM,2.4 nM,"O=C(Nc1ccc(F)cc1)c1cc(Cl)ccc1OCC(O)CNCC12CC3CC(CC(C3)C1)C2 (stereo not shown) [Compound I-66, 2-{3-[(Adamantan-1-ylmethyl)-amino]-2-hydroxy-pro-poxy}-5-chloro-N-(4-fluoro-phenyl)-benzamide]"
542 nM,1860 nM,"C#CCOc1ccc(OCC(O)CNCc2ccc(C3(C(F)(F)F)N=N3)cc2)c(C(=O)Nc2ccc(F)cc2)c1 (stereo not shown) [Compound I-45, N-(4-Fluoro-phenyl)-2-{2-hydroxy-3-[4-(3-trifluoromethyl-3H-diazirin-3-yl)-benzylamino]-propoxy}-5-prop-2-ynyloxy-benzamide]"
182 nM,670 nM,"CN(CC(O)COc1ccccc1C(=O)NCc1ccccc1)CC12CC3CC(CC(C3)C1)C2 (stereo not shown) [Compound I-36, 2-[3-(Adamantan-1-ylmethyl-methyl-amino)-2-hydroxy-propoxy]-N-benzyl-benzamide]"
26 nM,96 nM,"O=C(NCCc1ccccc1)c1cc(Cl)ccc1OCC(O)CNC1C2CC3CC(C2)CC1C3 (stereo not shown) [Compound I-10, 2-[3-(Adamantan-2-ylamino)-2-hydroxy-propoxy]-5-chloro-N-phenethyl-benzamide]"
30 nM,101 nM,"O=C(NCCc1ccccc1)c1ccccc1OCC(O)CNCC12CC3CC(CC(C3)C1)C2 (stereo not shown) [Compound I-31, 2-{3-[(Adamantan-1-ylmethyl)-amino]-2-hydroxy-propoxy}-N-phenethyl-benzamide]"
8.6 nM,36 nM,"Cc1ccc(NC(=O)c2ccccc2OCC(O)CN2CCC(Cc3ccccc3)CC2)cc1 (stereo not shown) [Compound I-81, 2-[3-(4-Benzyl-piperidin-1-yl)-2-hydroxy-propoxy]-N-p-tolyl-benzamide]"
467 nM,1690 nM,"CC(C)CCNCC(O)COc1ccccc1C(=O)NCCC(C)C (stereo not shown) [Compound I-58, 2-[2-Hydroxy-3-(3-methyl-butylamino)-propoxy]-N-(3-methyl-butyl)-benzamide]"
921 nM,1500 nM,"O=C(Nc1cccc(C(F)(F)F)c1)c1ccccc1OCC(O)CNC12CC3CC(CC(O)(C3)C1)C2 (stereo not shown) [Compound I-70, 2-[2-Hydroxy-3-(3-hydroxy-adamantan-1-ylamino)-propoxy]-N-(3-trifluoromethyl-phenyl)-benzamide]"
105 nM,256 nM,"O=C(Nc1ccccc1F)c1ccccc1OCC(O)CN1CCC(c2ccccc2)CC1 (stereo not shown) [Compound I-77, N-(2-Fluoro-phenyl)-2-[2-hydroxy-3-(4-phenyl-piperidin-1-yl)-propoxy]-benzamide]"
36 nM,134 nM,"CC(C)CCNC(=O)c1ccccc1OCC(O)CNCC12CC3CC(CC(C3)C1)C2 (stereo not shown) [Compound I-24, 2-{3-[(Adamantan-1-ylmethyl)-amino]-2-hydroxy-propoxy}-N-(3-methyl-butyl)-benzamide]"
